Measured values: paper PMC5428509, “Irreversible inhibition of BTK kinase by a novel highly selective inhibitor CHMFL-BTK-11 suppresses inflammatory response in rheumatoid arthritis model” (Scientific Reports, 2017)

Tests used:
Experiment in all cases: biochemical
Set-up in all cases: KinomeScan competition binding panel (DiscoveRx), percent of control at 1 uM
Conditions in all cases: read-out: Percent Control
AMPK-alpha2 = target: T1, AMPK-alpha2 (Homo sapiens, UniProt P54646)
T1 construct: gene PRKAA2
Procedure, shortened: (§1)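 KinomeScan technology used to profile binding across a panel of 456 kinases and mutants.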

NEK10 = NEK10 (Homo sapiens, UniProt Q6ZWH5)
Procedure, shortened: as §1

FGFR3(G697C) = FGFR3(G697C) (Homo sapiens, UniProt P22607, G697C)
Procedure, shortened: as §1

NIK = target: T2, NIK (Homo sapiens, UniProt Q99558)
T2 construct: gene MAP3K14
Procedure, shortened: as §1

EPHB6 = EPHB6 (Homo sapiens, UniProt O15197)
Procedure, shortened: as §1

CASK = CASK (Homo sapiens, UniProt O14936)
Procedure, shortened: as §1

EGFR(L861Q) = EGFR(L861Q) (Homo sapiens, UniProt P00533, L861Q)
Procedure, shortened: as §1

DLK = target: T3, DLK (Homo sapiens, UniProt Q12852)
T3 construct: gene MAP3K12
Procedure, shortened: as §1

PIM1 = PIM1 (Homo sapiens, UniProt P11309)
Procedure, shortened: as §1

[1] = target: T4, RSK1(Kin.Dom.2-C-terminal) (Homo sapiens, UniProt Q15418)
T4 construct: gene RPS6KA1; Kin.Dom.2-C-terminal
Procedure, shortened: as §1

CSK = CSK (Homo sapiens, UniProt P41240)
Procedure, shortened: as §1

RAF1 = RAF1 (Homo sapiens, UniProt P04049)
Procedure, shortened: as §1

[2] = target: T5, RPS6KA5(Kin.Dom.2-C-terminal) (Homo sapiens, UniProt O75582)
T5 construct: Kin.Dom.2-C-terminal
Procedure, shortened: as §1

MAP4K4 = MAP4K4 (Homo sapiens, UniProt O95819)
Procedure, shortened: as §1

MKNK2 = MKNK2 (Homo sapiens, UniProt Q9HBH9)
Procedure, shortened: as §1

[3] = target: EGFR(L747-S752del, P753S) (Homo sapiens, UniProt P00533, DEL747-752/P753S)
Procedure, shortened: as §1

HIPK2 = HIPK2 (Homo sapiens, UniProt Q9H2X6)
Procedure, shortened: as §1

CSNK1G3 = CSNK1G3 (Homo sapiens, UniProt Q9Y6M4)
Procedure, shortened: as §1

MARK3 = MARK3 (Homo sapiens, UniProt P27448)
Procedure, shortened: as §1

RIPK4 = RIPK4 (Homo sapiens, UniProt P57078)
Procedure, shortened: as §1

IGF1R = IGF1R (Homo sapiens, UniProt P08069)
Procedure, shortened: as §1

CDK2 = CDK2 (Homo sapiens, UniProt P24941)
Procedure, shortened: as §1

NLK = NLK (Homo sapiens, UniProt Q9UBE8)
Procedure, shortened: as §1

TAOK2 = TAOK2 (Homo sapiens, UniProt Q9UL54)
Procedure, shortened: as §1

T4 sequence (Q15418 whole entry): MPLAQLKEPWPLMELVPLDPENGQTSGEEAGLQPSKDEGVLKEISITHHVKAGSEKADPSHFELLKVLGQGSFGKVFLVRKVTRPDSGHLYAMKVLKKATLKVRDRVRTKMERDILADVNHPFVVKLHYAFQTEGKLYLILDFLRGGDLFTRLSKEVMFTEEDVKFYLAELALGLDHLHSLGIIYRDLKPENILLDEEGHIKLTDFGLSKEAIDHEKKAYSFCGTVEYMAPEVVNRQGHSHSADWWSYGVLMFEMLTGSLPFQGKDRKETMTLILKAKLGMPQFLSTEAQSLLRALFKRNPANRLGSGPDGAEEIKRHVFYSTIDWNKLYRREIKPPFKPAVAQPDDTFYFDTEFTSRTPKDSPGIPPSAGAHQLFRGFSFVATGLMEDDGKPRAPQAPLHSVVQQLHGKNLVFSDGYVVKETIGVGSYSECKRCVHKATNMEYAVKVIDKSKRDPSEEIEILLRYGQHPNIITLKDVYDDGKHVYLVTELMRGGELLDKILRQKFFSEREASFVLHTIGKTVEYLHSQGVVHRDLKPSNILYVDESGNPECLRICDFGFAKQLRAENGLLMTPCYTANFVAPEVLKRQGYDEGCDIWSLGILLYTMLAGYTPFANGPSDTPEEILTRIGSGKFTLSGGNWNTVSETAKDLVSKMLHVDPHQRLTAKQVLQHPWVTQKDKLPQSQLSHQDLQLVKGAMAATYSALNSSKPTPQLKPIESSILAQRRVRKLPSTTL
Sequence of MAP4K4 (O95819 whole entry): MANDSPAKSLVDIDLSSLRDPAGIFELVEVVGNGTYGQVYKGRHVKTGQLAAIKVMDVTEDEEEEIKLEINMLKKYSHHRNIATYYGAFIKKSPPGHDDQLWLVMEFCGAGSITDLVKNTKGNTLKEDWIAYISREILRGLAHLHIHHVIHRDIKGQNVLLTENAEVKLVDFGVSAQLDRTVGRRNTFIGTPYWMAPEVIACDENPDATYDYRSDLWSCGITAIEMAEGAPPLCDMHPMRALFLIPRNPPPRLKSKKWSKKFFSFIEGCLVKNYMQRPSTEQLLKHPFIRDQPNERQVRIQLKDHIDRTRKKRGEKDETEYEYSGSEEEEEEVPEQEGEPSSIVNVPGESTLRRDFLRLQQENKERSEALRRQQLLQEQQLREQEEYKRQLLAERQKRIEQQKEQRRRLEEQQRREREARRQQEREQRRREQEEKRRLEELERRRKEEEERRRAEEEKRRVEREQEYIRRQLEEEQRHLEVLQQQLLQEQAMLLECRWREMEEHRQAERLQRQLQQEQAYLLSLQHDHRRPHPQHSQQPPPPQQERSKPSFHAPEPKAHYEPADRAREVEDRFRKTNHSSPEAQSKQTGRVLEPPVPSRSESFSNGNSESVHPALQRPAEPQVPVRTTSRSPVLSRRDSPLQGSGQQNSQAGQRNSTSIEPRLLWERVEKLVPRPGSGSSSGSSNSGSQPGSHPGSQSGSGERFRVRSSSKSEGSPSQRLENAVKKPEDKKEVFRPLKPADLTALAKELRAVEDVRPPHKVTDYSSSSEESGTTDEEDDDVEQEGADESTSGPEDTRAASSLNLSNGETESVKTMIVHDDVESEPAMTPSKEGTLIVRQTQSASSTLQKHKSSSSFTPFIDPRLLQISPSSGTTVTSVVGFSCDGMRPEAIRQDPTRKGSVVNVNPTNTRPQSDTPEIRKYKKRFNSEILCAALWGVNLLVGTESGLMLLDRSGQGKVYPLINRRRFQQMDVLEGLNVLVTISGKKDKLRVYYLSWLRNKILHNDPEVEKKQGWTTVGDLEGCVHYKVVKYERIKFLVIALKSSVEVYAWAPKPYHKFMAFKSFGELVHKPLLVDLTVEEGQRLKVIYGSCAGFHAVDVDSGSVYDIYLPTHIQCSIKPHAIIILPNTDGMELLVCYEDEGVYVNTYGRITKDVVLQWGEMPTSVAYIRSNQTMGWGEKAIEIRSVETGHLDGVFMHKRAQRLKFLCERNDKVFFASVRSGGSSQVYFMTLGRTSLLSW
Sequence of RIPK4 (P57078 whole entry): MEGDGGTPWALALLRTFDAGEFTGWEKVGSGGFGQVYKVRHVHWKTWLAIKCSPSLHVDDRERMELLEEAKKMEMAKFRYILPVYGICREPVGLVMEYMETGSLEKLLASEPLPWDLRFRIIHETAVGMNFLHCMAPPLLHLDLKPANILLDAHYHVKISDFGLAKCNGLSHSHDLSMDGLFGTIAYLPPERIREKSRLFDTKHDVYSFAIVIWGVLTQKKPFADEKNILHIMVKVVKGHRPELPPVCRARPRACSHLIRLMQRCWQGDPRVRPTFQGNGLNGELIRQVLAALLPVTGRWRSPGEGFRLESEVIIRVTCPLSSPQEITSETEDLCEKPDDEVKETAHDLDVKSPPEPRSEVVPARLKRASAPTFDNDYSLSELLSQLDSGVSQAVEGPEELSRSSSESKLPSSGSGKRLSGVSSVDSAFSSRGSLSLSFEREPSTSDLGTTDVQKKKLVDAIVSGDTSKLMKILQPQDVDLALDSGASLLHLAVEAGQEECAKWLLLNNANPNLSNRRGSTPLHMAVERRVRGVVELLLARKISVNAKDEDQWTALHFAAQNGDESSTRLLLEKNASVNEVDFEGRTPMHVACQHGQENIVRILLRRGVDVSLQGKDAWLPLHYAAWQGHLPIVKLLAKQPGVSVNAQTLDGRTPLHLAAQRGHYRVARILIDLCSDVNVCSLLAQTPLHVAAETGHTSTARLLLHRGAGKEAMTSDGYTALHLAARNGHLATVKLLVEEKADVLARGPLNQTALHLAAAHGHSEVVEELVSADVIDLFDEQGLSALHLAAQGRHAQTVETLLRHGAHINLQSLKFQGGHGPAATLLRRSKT
Sequence of CASK (O14936 whole entry): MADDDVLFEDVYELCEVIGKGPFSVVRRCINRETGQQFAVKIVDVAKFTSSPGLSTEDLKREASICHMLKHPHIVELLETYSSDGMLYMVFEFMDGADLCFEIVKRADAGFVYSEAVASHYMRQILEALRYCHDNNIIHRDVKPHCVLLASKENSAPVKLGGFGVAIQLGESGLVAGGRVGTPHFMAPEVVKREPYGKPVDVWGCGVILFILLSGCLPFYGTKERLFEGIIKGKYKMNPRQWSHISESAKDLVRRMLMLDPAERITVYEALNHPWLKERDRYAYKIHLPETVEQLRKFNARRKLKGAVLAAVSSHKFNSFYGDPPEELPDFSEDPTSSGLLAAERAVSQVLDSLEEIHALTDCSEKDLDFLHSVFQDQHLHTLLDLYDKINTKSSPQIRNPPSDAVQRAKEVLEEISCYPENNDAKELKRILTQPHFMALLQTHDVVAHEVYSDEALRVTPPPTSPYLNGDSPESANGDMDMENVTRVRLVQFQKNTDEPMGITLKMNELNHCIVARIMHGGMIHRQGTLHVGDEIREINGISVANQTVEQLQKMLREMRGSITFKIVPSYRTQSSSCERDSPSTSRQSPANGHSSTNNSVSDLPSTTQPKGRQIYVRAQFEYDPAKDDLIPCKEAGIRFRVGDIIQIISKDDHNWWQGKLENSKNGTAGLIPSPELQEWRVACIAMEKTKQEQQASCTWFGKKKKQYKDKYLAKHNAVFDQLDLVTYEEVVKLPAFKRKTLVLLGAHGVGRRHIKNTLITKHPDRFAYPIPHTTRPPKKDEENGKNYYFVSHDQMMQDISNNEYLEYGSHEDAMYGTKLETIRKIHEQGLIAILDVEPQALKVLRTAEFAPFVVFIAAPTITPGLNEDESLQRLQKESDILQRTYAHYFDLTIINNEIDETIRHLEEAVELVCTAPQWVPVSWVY
Sequence of FGFR3(G697C) (P22607 whole entry G697C): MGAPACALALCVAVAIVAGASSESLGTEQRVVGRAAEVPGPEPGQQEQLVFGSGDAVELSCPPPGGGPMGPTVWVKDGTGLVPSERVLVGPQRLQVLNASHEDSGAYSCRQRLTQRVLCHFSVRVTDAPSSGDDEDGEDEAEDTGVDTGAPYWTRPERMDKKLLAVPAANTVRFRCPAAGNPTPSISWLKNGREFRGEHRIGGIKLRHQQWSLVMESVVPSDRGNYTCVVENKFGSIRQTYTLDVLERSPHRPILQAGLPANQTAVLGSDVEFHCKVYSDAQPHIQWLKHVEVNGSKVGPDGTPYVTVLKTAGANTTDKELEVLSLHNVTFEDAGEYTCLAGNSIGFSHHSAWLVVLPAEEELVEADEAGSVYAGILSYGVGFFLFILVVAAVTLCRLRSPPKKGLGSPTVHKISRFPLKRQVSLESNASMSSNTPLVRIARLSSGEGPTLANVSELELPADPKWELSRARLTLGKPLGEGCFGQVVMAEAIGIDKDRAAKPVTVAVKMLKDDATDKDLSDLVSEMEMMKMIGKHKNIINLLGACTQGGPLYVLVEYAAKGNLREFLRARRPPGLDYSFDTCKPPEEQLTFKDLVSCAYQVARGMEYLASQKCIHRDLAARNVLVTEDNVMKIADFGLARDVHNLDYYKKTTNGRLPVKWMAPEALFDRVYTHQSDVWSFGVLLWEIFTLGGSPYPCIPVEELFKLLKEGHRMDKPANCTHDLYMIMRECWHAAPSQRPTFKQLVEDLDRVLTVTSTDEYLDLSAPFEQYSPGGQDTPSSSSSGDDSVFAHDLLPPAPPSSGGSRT
T1 sequence (P54646 whole entry): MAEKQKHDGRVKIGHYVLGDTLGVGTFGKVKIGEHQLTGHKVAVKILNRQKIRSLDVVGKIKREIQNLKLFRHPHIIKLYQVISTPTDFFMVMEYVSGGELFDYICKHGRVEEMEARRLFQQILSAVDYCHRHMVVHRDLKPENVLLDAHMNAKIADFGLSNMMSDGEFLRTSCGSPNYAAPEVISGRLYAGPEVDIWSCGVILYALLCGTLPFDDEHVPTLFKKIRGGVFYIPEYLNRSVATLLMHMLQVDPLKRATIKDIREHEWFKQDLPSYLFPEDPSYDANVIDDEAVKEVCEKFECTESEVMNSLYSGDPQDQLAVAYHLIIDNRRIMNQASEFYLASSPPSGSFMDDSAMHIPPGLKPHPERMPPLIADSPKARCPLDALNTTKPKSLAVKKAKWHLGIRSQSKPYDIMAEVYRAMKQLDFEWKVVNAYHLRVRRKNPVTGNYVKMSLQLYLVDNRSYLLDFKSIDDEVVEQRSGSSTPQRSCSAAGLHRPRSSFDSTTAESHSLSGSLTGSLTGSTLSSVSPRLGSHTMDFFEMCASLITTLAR

C=CC(=O)Nc1cc(-n2c(=O)ccc3cnc4ccc(-n5cccn5)cc4c32)ccc1C [CHMFL-BTK-11]
remaining binding at 1 µM (AMPK-alpha2): 86%
remaining binding at 1 µM (NEK10): 97%
remaining binding at 1 µM (FGFR3(G697C)): 100%
remaining binding at 1 µM (NIK): 100%
remaining binding at 1 µM (EPHB6): 87%
remaining binding at 1 µM (CASK): 86%
remaining binding at 1 µM (EGFR(L861Q)): 71%
remaining binding at 1 µM (DLK): 100%
remaining binding at 1 µM (PIM1): 82%
remaining binding at 1 µM [1]: 100%
remaining binding at 1 µM (CSK): 100%
remaining binding at 1 µM (RAF1): 100%
remaining binding at 1 µM [2]: 89%
remaining binding at 1 µM (MAP4K4): 97%
remaining binding at 1 µM (MKNK2): 98%
remaining binding at 1 µM [3]: 86%
remaining binding at 1 µM (HIPK2): 96%
remaining binding at 1 µM (CSNK1G3): 100%
remaining binding at 1 µM (MARK3): 100%
remaining binding at 1 µM (RIPK4): 100%
remaining binding at 1 µM (IGF1R): 100%
remaining binding at 1 µM (CDK2): 100%
remaining binding at 1 µM (NLK): 100%
remaining binding at 1 µM (TAOK2): 91%
